In assay [1] the target is T1, full-length beta-Catenin (Uniprot ID P35222) (Homo sapiens, UniProt P35222).
T1 construct: 10 nM full-length beta-Catenin (Uniprot ID P35222)
T1 sequence (P35222 1-781): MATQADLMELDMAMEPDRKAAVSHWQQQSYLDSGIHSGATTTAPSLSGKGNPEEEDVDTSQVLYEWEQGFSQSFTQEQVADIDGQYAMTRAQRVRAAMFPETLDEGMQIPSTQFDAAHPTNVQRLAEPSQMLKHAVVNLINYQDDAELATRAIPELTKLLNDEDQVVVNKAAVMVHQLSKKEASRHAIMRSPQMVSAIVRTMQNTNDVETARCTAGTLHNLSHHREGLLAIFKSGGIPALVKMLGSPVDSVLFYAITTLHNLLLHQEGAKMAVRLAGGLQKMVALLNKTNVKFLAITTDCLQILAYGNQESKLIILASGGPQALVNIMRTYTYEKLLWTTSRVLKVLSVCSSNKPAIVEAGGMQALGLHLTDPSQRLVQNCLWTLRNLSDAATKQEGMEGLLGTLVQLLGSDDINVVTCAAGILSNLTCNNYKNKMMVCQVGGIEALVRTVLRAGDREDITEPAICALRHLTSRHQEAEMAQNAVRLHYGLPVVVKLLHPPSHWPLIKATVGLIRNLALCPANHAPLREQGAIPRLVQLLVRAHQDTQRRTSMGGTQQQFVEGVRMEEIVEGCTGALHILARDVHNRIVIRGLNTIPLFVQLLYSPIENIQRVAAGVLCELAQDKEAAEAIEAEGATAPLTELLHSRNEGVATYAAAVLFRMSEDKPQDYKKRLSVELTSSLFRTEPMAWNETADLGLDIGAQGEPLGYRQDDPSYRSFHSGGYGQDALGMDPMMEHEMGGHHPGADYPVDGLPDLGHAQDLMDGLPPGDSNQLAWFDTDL
Put plainly: Fluorescence polarization IC50 (beta-catenin / 5FAM-TCF4 10-53 competition). The class given is binding. Conditions: fluorescence polarization; read-out: beta-Catenin FP IC50. For orientation: Fluorescence polarisation rises when a labelled molecule tumbles more slowly, as on binding a larger partner.

Assay [2] has as its target T2, beta-catenin/TCF4 engagement (Homo sapiens, UniProt P35222).
T2 construct: expressed in transfected cells; host or cells: HEK293
T2 sequence (P35222 1-781): T1 sequence (P35222 1-781)
Put plainly: Nano-BRET target engagement assay (B-cat-Halo & TCF4-Luc in HEK293 cells). The class given is cell-based. Conditions: absolute IC50; read-out: NanoBRET Abs IC50.

Bounds are passed on as bounds.

The term IC50 denotes the midpoint of a concentration-inhibition curve. On to `CNCCCCN(C)C(=O)CC[C@@H]1NC(=O)[C@H](Cc2cccc(C(=O)O)c2)NC(=O)[C@H](CC(=O)O)NC(=O)C2(CCCC=CCCCOC(=O)N3CC[C@@](C(=O)N[C@@H](Cc4ccsc4)C(=O)N[C@@H](Cc4csc5ccccc45)C(=O)N[C@@H](C)C(N)=O)(C3)NC(=O)[C@H](C(C)C)NC(=O)[C@H](Cc3ccccc3)NC(=O)[C@H](C)NC1=O)CCCC=CC[C@]1(CCCN1C(C)=O)C(=O)N[C@@H](CC(=O)O)C(=O)N[C@@H](CC(C)(C)C)C(=O)N2` (stereo partly drawn) [I-2301, Ac-PL3-Asp-Npg-B5-Asp-3COOHF-[Me2diaminobutane]GlnR-Ala-Phe-Val-PyrS2-3Thi-BztA-Ala-NH2], for which the IC50 in assay [1] is 5 nM; in assay [2], over 20000 nM.

Consider `CCNC(=O)CC[C@@H]1NC(=O)[C@H](Cc2cccc(C(=O)O)c2)NC(=O)[C@H](CC(=O)O)NC(=O)C2(CCCC=CCCCOC(=O)N3CC[C@@](C(=O)N[C@@H](Cc4ccsc4)C(=O)N[C@@H](Cc4csc5ccccc45)C(=O)N[C@@H](C)C(N)=O)(C3)NC(=O)[C@H](C(C)C)NC(=O)[C@H](Cc3ccccc3)NC(=O)[C@H](C)NC1=O)CCCC=CC[C@]1(CCCN1C(C)=O)C(=O)N[C@@H](CC(=O)O)C(=O)N[C@@H](CC(C)(C)C)C(=O)N2` (stereo partly drawn) [I-2302, Ac-PL3-Asp-Npg-B5-Asp-3COOHF-[NHEt]GlnR-Ala-Phe-Val-PyrS2-3Thi-BztA-Ala-NH2], for which the IC50 in assay [1] was 5 nM; in assay [2], 2500 nM.

Consider `CC(=O)N1CCC[C@]12CC=CCCCC1(CCCC=CCCCOC(=O)N3CC[C@@](C(=O)N[C@@H](Cc4ccsc4)C(=O)N[C@@H](Cc4csc5ccccc45)C(=O)N[C@@H](C)C(N)=O)(C3)NC(=O)[C@H](C(C)C)NC(=O)[C@H](Cc3ccccc3)NC(=O)[C@H](C)NC(=O)[C@H](CCC(=O)N(C)C)NC(=O)[C@H](Cc3cccc(C(=O)O)c3)NC(=O)[C@H](CC(=O)O)NC1=O)NC(=O)[C@H](CC(C)(C)C)NC(=O)[C@H](CC(=O)O)NC2=O` (stereo partly drawn) [I-2303, Ac-PL3-Asp-Npg-B5-Asp-3COOHF-[NMe2]GlnR-Ala-Phe-Val-PyrS2-3Thi-BztA-Ala-NH2], for which the IC50 was 5 nM in assay [1] and 1200 nM in assay [2].

Take `CC(C)COC(=O)N1CCC[C@]12CC=CCCCC1(CCCC=CCCCOC(=O)N3CC[C@@](C(=O)N[C@@H](Cc4ccccc4Cl)C(=O)N[C@@H](Cc4csc5ccccc45)C(=O)N[C@@H](C)C(N)=O)(C3)NC(=O)[C@H](CC(C)C)NC(=O)[C@H](Cc3ccccc3)NC(=O)[C@H](C)NC(=O)[C@H](C)NC(=O)[C@H](Cc3cccc(C(=O)O)c3)NC(=O)[C@H](CC(=O)O)NC1=O)NC(=O)[C@H](CC(C)(C)C)NC(=O)[C@H](CC(=O)O)NC2=O` (stereo partly drawn) [I-2305, CO2iBu-PL3-Asp-Npg-B5-Asp-3COOHF-Ala-Ala-Phe-Leu-PyrS2-2C1F-BztA-Ala-NH2]: the IC50 in assay [1] is 65 nM; in assay [2], over 20000 nM.

In the case of `C[C@@H]1NC(=O)[C@H](C)NC(=O)[C@H](CC(=O)O)NC(=O)[C@H](CC(=O)O)NC(=O)C2(CCCC=CCCCOC(=O)N3CC[C@@](C(=O)N[C@@H](Cc4ccsc4)C(=O)N[C@@H](Cc4csc5ccccc45)C(=O)N[C@@H](CCC(N)=O)C(N)=O)(C3)NC(=O)[C@H](CC(N)=O)NC(=O)[C@H](Cc3ccccc3)NC1=O)CCCC=CCOc1cccc(c1)C(=O)N[C@@H](CC(=O)O)C(=O)N[C@@H](CC(C)(C)C)C(=O)N2` (stereo partly drawn) [I-2306, BzAm3Oallyl-Asp-Npg-B5-Asp-Asp-Ala-Ala-Phe-Asn-PyrS2-3Thi-BztA-Gln-NH2], the IC50 in assay [1] was 45 nM; in assay [2] it was over 20000 nM.

For `CC(=O)N1CCC[C@]12CC=CCCCC1(CCCC=CCCCOC(=O)N3CC[C@@](C(=O)N[C@@H](Cc4ccsc4)C(=O)N[C@@H](Cc4cccc(Br)c4)C(=O)N[C@@H](CCC(N)=O)C(N)=O)(C3)NC(=O)[C@H](CC(C)C)NC(=O)[C@H](Cc3ccccc3)NC(=O)[C@H](C)NC(=O)[C@H](C)NC(=O)[C@H](Cc3cccc(C(=O)O)c3)NC(=O)[C@H](CC(=O)O)NC1=O)NC(=O)[C@H](CC(C)(C)C)NC(=O)[C@H](CC(=O)O)NC2=O` (stereo partly drawn) [I-2307, Ac-PL3-Asp-Npg-B5-Asp-3COOHF-Ala-Ala-Phe-Leu-PyrS2-3Thi-3BrF-Gln-NH2], the IC50 in assay [1] was 16 nM; in assay [2] it was 8900 nM.

In the case of `CC(=O)N1CCC[C@]12CC=CCCCC1(CCCC=CCCCOC(=O)N3CC[C@@](C(=O)N[C@@H](Cc4ccsc4)C(=O)N[C@@H](Cc4cccc(Br)c4)C(=O)N[C@@H](C)C(N)=O)(C3)NC(=O)[C@H](C(C)C)NC(=O)[C@H](Cc3ccccc3)NC(=O)[C@H](C)NC(=O)[C@H](CCC(N)=O)NC(=O)[C@H](Cc3cccc(C(=O)O)c3)NC(=O)[C@H](CC(=O)O)NC1=O)NC(=O)[C@H](CC(C)(C)C)NC(=O)[C@H](CC(=O)O)NC2=O` (stereo partly drawn) [I-2308, Ac-PL3-Asp-Npg-B5-Asp-3COOHF-Gln-Ala-Phe-Val-PyrS2-3Thi-3BrF-Ala-NH2], the IC50 in assay [1] came to 8 nM; in assay [2], 6000 nM.

For the compound `CC(=O)N1CCC[C@]12CC=CCCCC1(CCCC=CCCCOC(=O)N3CC[C@@](C(=O)N[C@@H](Cc4ccsc4)C(=O)N[C@@H](Cc4ccc5ccccc5c4)C(=O)N[C@@H](CCC(N)=O)C(N)=O)(C3)NC(=O)[C@H](CC(C)C)NC(=O)[C@H](Cc3ccccc3)NC(=O)[C@H](C)NC(=O)[C@H](C)NC(=O)[C@H](Cc3cccc(C(=O)O)c3)NC(=O)[C@H](CC(=O)O)NC1=O)NC(=O)[C@H](CC(C)(C)C)NC(=O)[C@H](CC(=O)O)NC2=O` (stereo partly drawn) [I-2309, Ac-PL3-Asp-Npg-B5-Asp-3COOHF-Ala-Ala-Phe-Leu-PyrS2-3Thi-2NapA-Gln-NH2], the IC50 in assay [1] was determined as 17 nM; in assay [2], 13700 nM.

Consider `CC(=O)N1CCC[C@]12CC=CCCCC1(CCCC=CCCCOC(=O)N3CC[C@@](C(=O)N[C@@H](Cc4ccsc4)C(=O)N[C@@H](Cc4ccc5ccccc5c4)C(=O)N[C@@H](C)C(N)=O)(C3)NC(=O)[C@H](C(C)C)NC(=O)[C@H](Cc3ccccc3)NC(=O)[C@H](C)NC(=O)[C@H](CCC(N)=O)NC(=O)[C@H](Cc3cccc(C(=O)O)c3)NC(=O)[C@H](CC(=O)O)NC1=O)NC(=O)[C@H](CC(C)(C)C)NC(=O)[C@H](CC(=O)O)NC2=O` (stereo partly drawn) [I-2310, Ac-PL3-Asp-Npg-B5-Asp-3COOHF-Gln-Ala-Phe-Val-PyrS2-3Thi-2NapA-Ala-NH2], for which the values for the IC50 in assay [1] and in assay [2] were 18 nM and 8900 nM, respectively.

With `CC(=O)N1CCC[C@]12CC=CCCCC1(CCCC=CCCCOC(=O)N3CC[C@@](C(=O)N[C@@H](Cc4ccsc4)C(=O)N[C@H](C(=O)N[C@@H](CCC(N)=O)C(N)=O)[C@H](C)c4ccc5ccccc5c4)(C3)NC(=O)[C@H](CC(C)C)NC(=O)[C@H](Cc3ccccc3)NC(=O)[C@H](C)NC(=O)[C@H](C)NC(=O)[C@H](Cc3cccc(C(=O)O)c3)NC(=O)[C@H](CC(=O)O)NC1=O)NC(=O)[C@H](CC(C)(C)C)NC(=O)[C@H](CC(=O)O)NC2=O` (stereo partly drawn) [I-2311, Ac-PL3-Asp-Npg-B5-Asp-3COOHF-Ala-Ala-Phe-Leu-PyrS2-3Thi-RbMe2NapA-Gln-NH2], the IC50 stood at 5 nM in assay [1] and 5200 nM in assay [2].

As for `CC(=O)N1CCC[C@]12CC=CCCCC1(CCCC=CCCCOC(=O)N3CC[C@@](C(=O)N[C@@H](Cc4ccsc4)C(=O)N[C@H](C(=O)N[C@@H](C)C(N)=O)[C@H](C)c4ccc5ccccc5c4)(C3)NC(=O)[C@H](C(C)C)NC(=O)[C@H](Cc3ccccc3)NC(=O)[C@H](C)NC(=O)[C@H](CCC(N)=O)NC(=O)[C@H](Cc3cccc(C(=O)O)c3)NC(=O)[C@H](CC(=O)O)NC1=O)NC(=O)[C@H](CC(C)(C)C)NC(=O)[C@H](CC(=O)O)NC2=O` (stereo partly drawn) [I-2312, Ac-PL3-Asp-Npg-B5-Asp-3COOHF-Gln-Ala-Phe-Val-PyrS2-3Thi-RbMe2NapA-Ala-NH2], the IC50 in assay [1] was found to be 5 nM; in assay [2], 5200 nM.
